Among the data in patent US11236129B2, “IL-17A binding peptides and medical uses thereof” (Dompe' Farmaceutici S.P.A., priority 2018, dated 2022) are IC50 values, retold here.

Residues, ends and D or L forms follow the SMILES beside them. A value given as a limit tells only on which side of the number the result lay.

The test concerns the target IL-17RA/IL17RC dimerization induced by IL-17A (Homo sapiens, UniProt Q16552). In words: IL-17RA/IL17RC dimerization assay in response to IL-17A (PathHunter Cytokine Receptor Assay). Format: cell-based. The conditions noted are these: IL-17A at EC80; read-out: IC50 in IL-17RA/IL7RC dimerization assay. The essentials:
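PathHunter cells with IL-17RA and IL-17RC tagged for β-galactosidase complementation were preincubated 60 min with peptide (1% vehicle). IL-17A was then added at EC80 for 6–16 h at 37 °C, and chemiluminescence was read. Inhibition is relative to the EC80 and vehicle controls.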

IL-17RA/IL17RC dimerization induced by IL-17A, sequence (Q16552 24-155): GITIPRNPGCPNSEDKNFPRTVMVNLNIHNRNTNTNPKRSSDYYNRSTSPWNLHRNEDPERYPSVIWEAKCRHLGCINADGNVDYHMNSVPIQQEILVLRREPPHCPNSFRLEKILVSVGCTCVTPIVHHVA

For the compound `CC(=O)N[C@H](C(=O)N[C@@H](Cc1c[nH]cn1)C(=O)N[C@H](C(=O)N[C@@H](CO)C(=O)N[C@H](C(=O)N1CCC[C@H]1C(=O)N[C@@H](CCC(N)=O)C(=O)N[C@@H](CCC(=O)O)C(=O)N[C@@H](CC(C)C)C(=O)N[C@@H](Cc1c[nH]c2ccccc12)C(=O)N[C@@H](CCC(=O)O)C(=O)N[C@@H](Cc1c[nH]c2ccccc12)C(=O)N[C@H](C(=O)N[C@@H](CCCNC(=N)N)C(=O)N[C@@H](CCCNC(=N)N)C(N)=O)C(C)C)C(C)C)C(C)C)C(C)C` [SEQ ID NO: 231] (Ac-VHVSVPQELWEWVRR-NH2), the IC50 was less than 10 µM.

Consider `CC(=O)N[C@H](C(=O)N[C@@H](Cc1c[nH]cn1)C(=O)N[C@H](C(=O)N[C@@H](CO)C(=O)N[C@H](C(=O)N1CCC[C@H]1C(=O)N[C@@H](CCC(N)=O)C(=O)N[C@@H](CCC(=O)O)C(=O)N[C@@H](CC(C)C)C(=O)N[C@@H](Cc1ccc(O)cc1)C(=O)N[C@@H](CCC(=O)O)C(=O)N[C@@H](Cc1c[nH]c2ccccc12)C(=O)N[C@H](C(=O)N[C@@H](CCCNC(=N)N)C(=O)N[C@@H](CCCNC(=N)N)C(N)=O)C(C)C)C(C)C)C(C)C)C(C)C` [SEQ ID NO: 232] (Ac-VHVSVPQELYEWVRR-NH2), for which the IC50 is less than 10 µM.

On to `CC[C@H](C)[C@H](NC(=O)[C@@H](NC(=O)[C@@H](NC(=O)[C@H](CCCNC(=N)N)NC(=O)[C@@H](NC(C)=O)C(C)C)C(C)C)[C@@H](C)O)C(=O)N1CCC[C@H]1C(=O)N[C@@H](CCC(N)=O)C(=O)N[C@@H](CCC(=O)O)C(=O)N[C@@H](CC(C)C)C(=O)N[C@@H](Cc1c[nH]c2ccccc12)C(=O)N[C@@H](CCC(=O)O)C(=O)N[C@@H](Cc1c[nH]c2ccccc12)C(=O)N[C@H](C(=O)N[C@@H](CCCNC(=N)N)C(=O)N[C@@H](CCCNC(=N)N)C(N)=O)C(C)C` [SEQ ID NO: 233] (Ac-VRVTIPQELWEWVRR-NH2), for which the IC50 was less than 10 µM.

On to `CC(=O)N[C@H](C(=O)N[C@@H](CCCNC(=N)N)C(=O)N[C@H](C(=O)N[C@H](C(=O)N[C@H](C(=O)N1CCC[C@H]1C(=O)N[C@@H](CCC(N)=O)C(=O)N[C@@H](CCC(=O)O)C(=O)N[C@@H](CC(C)C)C(=O)N[C@@H](Cc1ccc(O)cc1)C(=O)N[C@@H](CCC(=O)O)C(=O)N[C@@H](Cc1c[nH]c2ccccc12)C(=O)N[C@H](C(=O)N[C@@H](CCCNC(=N)N)C(=O)N[C@@H](CCCNC(=N)N)C(N)=O)C(C)C)C(C)C)[C@@H](C)O)C(C)C)C(C)C` [SEQ ID NO: 234] (Ac-VRVTVPQELYEWVRR-NH2), for which the IC50 is less than 10 µM.

Consider `CC(=O)N[C@H](C(=O)N[C@@H](CCCNC(=N)N)C(=O)N[C@H](C(=O)N[C@H](C(=O)N[C@H](C(=O)N1CCC[C@H]1C(=O)N[C@@H](CCC(N)=O)C(=O)N[C@@H](CCC(=O)O)C(=O)N[C@@H](CC(C)C)C(=O)N[C@@H](Cc1c[nH]c2ccccc12)C(=O)N[C@@H](CCC(=O)O)C(=O)N[C@@H](Cc1c[nH]c2ccccc12)C(=O)N[C@H](C(=O)N[C@@H](CCCNC(=N)N)C(=O)N[C@@H](CCCNC(=N)N)C(N)=O)C(C)C)C(C)C)[C@@H](C)O)C(C)C)C(C)C` [SEQ ID NO: 235] (Ac-VRVTVPQELWEWVRR-NH2), for which the IC50 was less than 10 µM.

Turning to `CC[C@H](C)[C@H](NC(=O)[C@H](CCC(=O)O)NC(=O)[C@H](CCC(N)=O)NC(=O)[C@@H]1CCCN1C(=O)[C@@H](NC(=O)[C@@H](NC(=O)[C@@H](NC(=O)[C@H](Cc1c[nH]cn1)NC(=O)[C@@H](NC(C)=O)C(C)C)C(C)C)[C@@H](C)O)C(C)C)C(=O)N[C@@H](Cc1ccc(O)cc1)C(=O)N[C@@H](CCC(=O)O)C(=O)N[C@@H](Cc1c[nH]c2ccccc12)C(=O)N[C@H](C(=O)N[C@@H](CCCNC(=N)N)C(=O)N[C@@H](CCCNC(=N)N)C(N)=O)C(C)C` [SEQ ID NO: 236] (Ac-VHVTVPQEIYEWVRR-NH2), the IC50 is less than 10 µM.

For `CC[C@H](C)[C@H](NC(=O)[C@H](CCC(=O)O)NC(=O)[C@H](CCC(N)=O)NC(=O)[C@@H]1CCCN1C(=O)[C@@H](NC(=O)[C@@H](NC(=O)[C@@H](NC(=O)[C@H](Cc1c[nH]cn1)NC(=O)[C@@H](NC(C)=O)C(C)C)C(C)C)[C@@H](C)O)[C@@H](C)CC)C(=O)N[C@@H](Cc1c[nH]c2ccccc12)C(=O)N[C@@H](CCC(=O)O)C(=O)N[C@@H](Cc1c[nH]c2ccccc12)C(=O)N[C@H](C(=O)N[C@@H](CCCNC(=N)N)C(=O)N[C@@H](CCCNC(=N)N)C(N)=O)C(C)C` [SEQ ID NO: 237] (Ac-VHVTIPQEIWEWVRR-NH2), the IC50 was less than 10 µM.

Turning to `CC(=O)N[C@H](C(=O)N[C@@H](Cc1c[nH]cn1)C(=O)N[C@@H](Cc1ccccc1)C(=O)N[C@H](C(=O)N[C@H](C(=O)N1CCC[C@H]1C(=O)N[C@@H](CCC(N)=O)C(=O)N[C@@H](CCC(=O)O)C(=O)N[C@@H](CC(C)C)C(=O)N[C@@H](Cc1ccc(O)cc1)C(=O)N[C@@H](CCC(=O)O)C(=O)N[C@@H](Cc1c[nH]c2ccccc12)C(=O)N[C@H](C(=O)N[C@@H](CCCNC(=N)N)C(=O)N[C@@H](CCCNC(=N)N)C(N)=O)C(C)C)C(C)C)[C@@H](C)O)C(C)C` [SEQ ID NO: 238] (Ac-VHFTVPQELYEWVRR-NH2), the IC50 is less than 10 µM.

For the compound `CC[C@H](C)[C@H](NC(=O)[C@H](Cc1c[nH]c2ccccc12)NC(=O)[C@H](CC(=O)O)NC(=O)[C@H](Cc1c[nH]c2ccccc12)NC(=O)[C@H](CC(C)C)NC(=O)[C@H](CC(=O)O)NC(=O)[C@H](C)NC(=O)[C@@H]1CCCN1C(=O)[C@@H](NC(=O)[C@H](CO)NC(=O)[C@@H](NC(=O)[C@H](CCCCN)NC(=O)[C@@H](NC(C)=O)C(C)C)[C@@H](C)CC)C(C)C)C(=O)N[C@@H](CC(N)=O)C(=O)N[C@@H](CCCCN)C(N)=O` [SEQ ID NO: 239] (Ac-VKISVPADLWDWINK-NH2), the IC50 was less than 10 µM.

As for `CC[C@H](C)[C@H](NC(=O)[C@H](Cc1c[nH]c2ccccc12)NC(=O)[C@H](CC(=O)O)NC(=O)[C@H](Cc1c[nH]c2ccccc12)NC(=O)[C@H](CC(C)C)NC(=O)[C@H](CC(=O)O)NC(=O)[C@H](C)NC(=O)[C@@H]1CCCN1C(=O)[C@@H](NC(=O)[C@H](CO)NC(=O)[C@@H](NC(=O)[C@H](CCCNC(=N)N)NC(=O)[C@H](CC(C)C)NC(C)=O)[C@@H](C)CC)C(C)C)C(=O)N[C@@H](CC(N)=O)C(=O)N[C@@H](CCCCN)C(N)=O` [SEQ ID NO: 240] (Ac-LRISVPADLWDWINK-NH2), the IC50 was less than 10 µM.

As to `CC[C@H](C)[C@H](NC(=O)[C@H](Cc1c[nH]c2ccccc12)NC(=O)[C@H](CC(=O)O)NC(=O)[C@H](Cc1c[nH]c2ccccc12)NC(=O)[C@H](CC(C)C)NC(=O)[C@H](CC(=O)O)NC(=O)[C@H](C)NC(=O)[C@@H]1CCCN1C(=O)[C@@H](NC(=O)[C@H](Cc1ccc(O)cc1)NC(=O)[C@@H](NC(=O)[C@H](CCCNC(=N)N)NC(=O)[C@H](CC(C)C)NC(C)=O)[C@@H](C)CC)C(C)C)C(=O)N[C@@H](CC(N)=O)C(=O)N[C@@H](CCCCN)C(N)=O` [SEQ ID NO: 241] (Ac-LRIYVPADLWDWINK-NH2), the IC50 was less than 10 µM.

In the case of `CC[C@H](C)[C@H](NC(=O)[C@H](Cc1c[nH]c2ccccc12)NC(=O)[C@H](CC(=O)O)NC(=O)[C@H](Cc1c[nH]c2ccccc12)NC(=O)[C@H](CC(C)C)NC(=O)[C@H](CC(=O)O)NC(=O)[C@H](C)NC(=O)[C@@H]1CCCN1C(=O)[C@@H](NC(=O)[C@H](Cc1ccc(O)cc1)NC(=O)CNC(=O)[C@H](CCCNC(=N)N)NC(=O)[C@@H](NC(C)=O)C(C)C)C(C)C)C(=O)N[C@@H](CC(N)=O)C(=O)N[C@@H](CCCCN)C(N)=O` [SEQ ID NO: 242] (Ac-VRGYVPADLWDWINK-NH2), the IC50 is less than 10 µM.

On to `CC[C@H](C)[C@H](NC(=O)[C@H](Cc1c[nH]c2ccccc12)NC(=O)[C@H](CC(=O)O)NC(=O)[C@H](Cc1c[nH]c2ccccc12)NC(=O)[C@H](CC(C)C)NC(=O)[C@H](CC(=O)O)NC(=O)[C@H](C)NC(=O)[C@@H]1CCCN1C(=O)[C@@H](NC(=O)[C@H](Cc1ccc(O)cc1)NC(=O)[C@H](C)NC(=O)[C@H](CCCNC(=N)N)NC(=O)[C@@H](NC(C)=O)C(C)C)C(C)C)C(=O)N[C@@H](CC(N)=O)C(=O)N[C@@H](CCCCN)C(N)=O` [SEQ ID NO: 243] (Ac-VRAYVPADLWDWINK-NH2), for which the IC50 was less than 10 µM.

`CC[C@H](C)[C@H](NC(=O)[C@H](Cc1c[nH]c2ccccc12)NC(=O)[C@H](CC(=O)O)NC(=O)[C@H](Cc1c[nH]c2ccccc12)NC(=O)[C@H](CC(C)C)NC(=O)[C@H](CC(=O)O)NC(=O)[C@H](C)NC(=O)[C@@H]1CCCN1C(=O)[C@@H](NC(=O)[C@H](Cc1ccc(O)cc1)NC(=O)[C@H](CC(C)C)NC(=O)[C@H](CCCNC(=N)N)NC(=O)[C@@H](NC(C)=O)C(C)C)C(C)C)C(=O)N[C@@H](CC(N)=O)C(=O)N[C@@H](CCCCN)C(N)=O` [SEQ ID NO: 244] (Ac-VRLYVPADLWDWINK-NH2): the IC50 was less than 10 µM.

With `CC[C@H](C)[C@H](NC(=O)[C@H](Cc1c[nH]c2ccccc12)NC(=O)[C@H](CC(=O)O)NC(=O)[C@H](Cc1c[nH]c2ccccc12)NC(=O)[C@H](CC(C)C)NC(=O)[C@H](CC(=O)O)NC(=O)[C@H](C)NC(=O)[C@@H]1CCCN1C(=O)[C@H](CC(C)C)NC(=O)[C@H](Cc1ccc(O)cc1)NC(=O)[C@@H](NC(=O)[C@H](CCCNC(=N)N)NC(=O)[C@@H](NC(C)=O)C(C)C)[C@@H](C)CC)C(=O)N[C@@H](CC(N)=O)C(=O)N[C@@H](CCCCN)C(N)=O` [SEQ ID NO: 245] (Ac-VRIYLPADLWDWINK-NH2), the IC50 was less than 10 µM.

With `CC[C@H](C)[C@H](NC(C)=O)C(=O)N[C@@H](Cc1c[nH]cn1)C(=O)N[C@H](C(=O)N[C@H](C(=O)N[C@H](C(=O)N1CCC[C@H]1C(=O)N[C@@H](CC(C)C)C(=O)N[C@@H](CCC(=O)O)C(=O)N[C@H](C(=O)N[C@@H](Cc1ccccc1)C(=O)N[C@@H](CCC(=O)O)C(=O)N[C@@H](Cc1c[nH]c2ccccc12)C(=O)N[C@@H](CC(C)C)C(=O)N[C@@H](CCC(N)=O)C(=O)N[C@@H](Cc1c[nH]cn1)C(N)=O)[C@@H](C)CC)[C@@H](C)CC)[C@@H](C)O)C(C)C` [SEQ ID NO: 246] (Ac-IHVTIPLEIFEWLQH-NH2), the IC50 was less than 10 µM.
